{"source": "patent US5968912A", "about": "“Methods for immunosuppressing” (Immune Modulation, Inc., priority 1997, dated 1999)", "key": {"[1]": {"tested_on": "IL-4", "assay": "IL-4 production in PHA-stimulated PBMC cultures", "assay_type": "cell-based, human", "parameters": "% Inhibition of IL-4 production: concentration or dose not given beside the values", "description": "Production of autocrine growth factors (IL-2, IL-4, IL-10 and Interferon-gamma) in PHA-stimulated human PBMC cultures\nCulture supernatants were collected at the times indicated and frozen at -20° C. At the end of 96 hr., all supernatants were assayed by enzyme immunoassay for the presence of the cytokines: interleukin-2, -4, -10 and interferon (IFN)-gamma. Results were expressed in pg/mL concentration of cytokine and % inhibition of cytokine production."}, "[2]": {"tested_on": "Swiss Webster mice", "assay": "Single dose range-finding toxicity study in mice", "assay_type": "in vivo, mouse (Swiss Webster)", "parameters": "key to Clinical observation: Normal / Clinical observation: Vocalization / Clinical observation: Slow breathing / Clinical observation: Hypoactive / Clinical observation: FPSR / Clinical observation: Cool to touch / Clinical observation: Hypoactivity: Observations are recorded as present (x); not observed (--)", "description": "Single dose range-finding study of HE-33 in mice\nSwiss Webster mice (Charles River Laboratories, Hollister, Calif.) were used for the preliminary toxicology study. One mouse per dose level was administered a single intravenous (IV) dose of either 1.5, 15, 75, 100, 150, 200, 300 or 400 mg of HE-33/kg body weight. The dose volume for all mice receiving saline or formulations of HE-3 3 was 10 mL/kg body weight. All doses were administered as a slow-push IV injection in the tail vein. Day 1 of the study for each mouse occurred on the day of administration of the drug or the saline.\nClinical observations/body weights\nEach mouse was observed closely for clinical signs of toxicity at approximately 10, 30 and 60 minutes and 5 hours after dosing on Day 1, and once daily on Days 2-8. In addition, mortality checks were performed twice daily. Body weights were obtained on each mouse prior to dosing on Day 1. Body weights (Day 1) for the mice used in this study ranged between 27.3 and 32.5 g (Table 8).\n^a Animals were dosed with saline adjusted to pH 8.55.\n^b Observations are recorded as present (x) or not observed (--).\n^c Additional observation was reported in the time interval closest t\n^d FPSR = Flattened posture with or without closed eyes; animal would\nperiodically have a startled response in response to or without a noise"}, "[3]": {"settings": "animal 3, 75 mg/kg IV, 30 min to day 8"}, "[4]": {"settings": "animal 4, 150 mg/kg IV, 10, 30, 60 min"}, "[5]": {"settings": "animal 4, 150 mg/kg IV, 5 hr to day 8"}, "[6]": {"settings": "animal 5, 300 mg/kg IV, 10 min to 5 hr"}, "[7]": {"settings": "animal 5, 300 mg/kg IV, days 2-8"}, "[8]": {"settings": "animal 11, 300 mg/kg IV, 30, 60 min"}, "[9]": {"settings": "animal 11, 300 mg/kg IV, 10 min and 5 hr to day 8"}}}
{"smiles": "CCCN(CCC)c1ncnc2c1ncn2[C@@H]1O[C@@H]2COP(=O)(O)O[C@H]2[C@H]1O", "note": "[HE-33, N^6,N^6 -di-n-Propyl-c-AMP]", "values": [{"measurement": "% Inhibition of IL-4 production", "setting": "[1]; 24 hours", "value": 0, "unit": "%"}, {"measurement": "IL-4 production", "setting": "[1]; 24 hours", "value": 1041, "unit": "pg/mL"}, {"measurement": "% Inhibition of IL-4 production", "setting": "[1]; 48 hours", "value": 87, "unit": "%"}, {"measurement": "IL-4 production", "setting": "[1]; 48 hours", "value": 193, "unit": "pg/mL"}, {"measurement": "% Inhibition of IL-4 production", "setting": "[1]; 72 hours", "value": 26, "unit": "%"}, {"measurement": "IL-4 production", "setting": "[1]; 72 hours", "value": 860, "unit": "pg/mL"}, {"measurement": "% Inhibition of IL-4 production", "setting": "[1]; 96 hours", "value": 25, "unit": "%"}, {"measurement": "IL-4 production", "setting": "[1]; 96 hours", "value": 101, "unit": "pg/mL"}, {"measurement": "Clinical signs of toxicity", "setting": "[2]; 150-400 mg/kg IV, between 10 minutes and 5 hrs after dosing on Day 1", "value": "signs of hypoactivity, flattened posture with or without closed eyes and slow breathing"}, {"measurement": "Clinical observation: Normal", "setting": "[2]; animal 1, 1.5 mg/kg IV, all times 10 min to day 8", "value": "x"}, {"measurement": "Clinical observation: Normal", "setting": "[2]; animal 2, 15 mg/kg IV, all times 10 min to day 8", "value": "x"}, {"measurement": "Clinical observation: Normal", "setting": "[2]; animal 3, 75 mg/kg IV, 10 min", "value": "--"}, {"measurement": "Clinical observation: Vocalization", "setting": "[2]; animal 3, 75 mg/kg IV, 10 min", "value": "x"}, {"measurement": "Clinical observation: Normal", "setting": "[2]; [3]", "value": "x"}, {"measurement": "Clinical observation: Vocalization", "setting": "[2]; [3]", "value": "--"}, {"measurement": "Clinical observation: FPSR", "setting": "[2]; [4]", "value": "x"}, {"measurement": "Clinical observation: Hypoactive", "setting": "[2]; [4]", "value": "x"}, {"measurement": "Clinical observation: Normal", "setting": "[2]; [4]", "value": "--"}, {"measurement": "Clinical observation: Slow breathing", "setting": "[2]; [4]", "value": "x"}, {"measurement": "Clinical observation: FPSR", "setting": "[2]; [5]", "value": "--"}, {"measurement": "Clinical observation: Hypoactive", "setting": "[2]; [5]", "value": "--"}, {"measurement": "Clinical observation: Normal", "setting": "[2]; [5]", "value": "x"}, {"measurement": "Clinical observation: Slow breathing", "setting": "[2]; [5]", "value": "--"}, {"measurement": "Clinical observation: FPSR", "setting": "[2]; animal 5, 300 mg/kg IV, 10, 30, 60 min", "value": "x"}, {"measurement": "Clinical observation: Cool to touch", "setting": "[2]; animal 5, 300 mg/kg IV, 10, 30, 60 min and days 2-8", "value": "--"}, {"measurement": "Clinical observation: Hypoactivity", "setting": "[2]; [6]", "value": "x"}, {"measurement": "Clinical observation: Normal", "setting": "[2]; [6]", "value": "--"}, {"measurement": "Clinical observation: Slow breathing", "setting": "[2]; [6]", "value": "x"}, {"measurement": "Clinical observation: Cool to touch", "setting": "[2]; animal 5, 300 mg/kg IV, 5 hr", "value": "x"}, {"measurement": "Clinical observation: FPSR", "setting": "[2]; animal 5, 300 mg/kg IV, 5 hr to day 8", "value": "--"}, {"measurement": "Clinical observation: Hypoactivity", "setting": "[2]; [7]", "value": "--"}, {"measurement": "Clinical observation: Normal", "setting": "[2]; [7]", "value": "x"}, {"measurement": "Clinical observation: Slow breathing", "setting": "[2]; [7]", "value": "--"}, {"measurement": "Clinical observation: Normal", "setting": "[2]; animal 8, 100 mg/kg IV, all times 10 min to day 8", "value": "x"}, {"measurement": "Clinical observation: Normal", "setting": "[2]; animal 9, 200 mg/kg IV, all times 10 min to day 8", "value": "x"}, {"measurement": "Clinical observation: Normal", "setting": "[2]; animal 10, 200 mg/kg IV, all times 10 min to day 8", "value": "x"}, {"measurement": "Clinical observation: FPSR", "setting": "[2]; [8]", "value": "x"}, {"measurement": "Clinical observation: Hypoactivity", "setting": "[2]; [8]", "value": "x"}, {"measurement": "Clinical observation: Normal", "setting": "[2]; [8]", "value": "--"}, {"measurement": "Clinical observation: Slow breathing", "setting": "[2]; [8]", "value": "x"}, {"measurement": "Clinical observation: FPSR", "setting": "[2]; [9]", "value": "--"}, {"measurement": "Clinical observation: Hypoactivity", "setting": "[2]; [9]", "value": "--"}, {"measurement": "Clinical observation: Normal", "setting": "[2]; [9]", "value": "x"}, {"measurement": "Clinical observation: Slow breathing", "setting": "[2]; [9]", "value": "--"}, {"measurement": "Clinical observation: Slow breathing", "setting": "[2]; animal 12, 400 mg/kg IV, 10, 30, 60 min and days 2-8", "value": "--"}, {"measurement": "Clinical observation: FPSR", "setting": "[2]; animal 12, 400 mg/kg IV, 10 min", "value": "--"}, {"measurement": "Clinical observation: Normal", "setting": "[2]; animal 12, 400 mg/kg IV, 10 min and days 2-8", "value": "x"}, {"measurement": "Clinical observation: FPSR", "setting": "[2]; animal 12, 400 mg/kg IV, 30 min", "value": "x"}, {"measurement": "Clinical observation: Normal", "setting": "[2]; animal 12, 400 mg/kg IV, 30 min, 60 min, 5 hr", "value": "--"}, {"measurement": "Clinical observation: FPSR", "setting": "[2]; animal 12, 400 mg/kg IV, 60 min, 5 hr", "value": "x"}, {"measurement": "Clinical observation: Slow breathing", "setting": "[2]; animal 12, 400 mg/kg IV, 5 hr", "value": "x"}, {"measurement": "Clinical observation: FPSR", "setting": "[2]; animal 12, 400 mg/kg IV, days 2-8", "value": "--"}, {"measurement": "Condition after Day 1", "setting": "[2]; drug-treated groups, Days 2 to 8", "value": "normal between Days 2 and 8"}, {"measurement": "Survival for the duration of the study", "setting": "[2]; single IV 1.5-400 mg/kg, 8 days", "value": "All mice survived for the duration of the study"}]}
